Measured values reported in PubChem BioAssay (NCI).
In brackets after ≈: the same amount, converted by molar mass.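 Test compounds were applied to cells in 96-well plates for 48 hours at 5 doses. GI50 is the concentration that inhibits growth by half. The concentration for full growth arrest is given as TGI.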

How the values were obtained:
Assay in all cases: NCI anticancer screen, dose series, 48 h
SK-MEL-5 melanoma = system: SK-MEL-5 melanoma
MDA-MB-435 = system: MDA-MB-435
HT29 colon = system: HT29 colon
HCT-116 colon = system: HCT-116 colon
OVCAR-8 ovarian = system: OVCAR-8 ovarian
SN12C renal = system: SN12C renal
SW-620 colon = system: SW-620 colon
M14 melanoma = system: M14 melanoma
UO-31 renal = system: UO-31 renal
LOX IMVI melanoma = system: LOX IMVI melanoma
IGROV1 ovarian = system: IGROV1 ovarian
MDA-N = system: MDA-N
UACC-62 melanoma = system: UACC-62 melanoma
NCI/ADR-RES ovarian = system: NCI/ADR-RES ovarian
DU-145 prostate = system: DU-145 prostate
SF-539 CNS = system: SF-539 CNS
CCRF-CEM leukemia = system: CCRF-CEM leukemia
T-47D breast = system: T-47D breast
MOLT-4 leukemia = system: MOLT-4 leukemia
RPMI-8226 leukemia = system: RPMI-8226 leukemia
MCF7 breast = system: MCF7 breast
MDA-MB-231 breast = system: MDA-MB-231 breast
786-0 renal = system: 786-0 renal
K-562 leukemia = system: K-562 leukemia
U251 CNS = system: U251 CNS
OVCAR-3 ovarian = system: OVCAR-3 ovarian
HL-60(TB) leukemia = system: HL-60(TB) leukemia
HCC-2998 colon = system: HCC-2998 colon
SK-MEL-28 melanoma = system: SK-MEL-28 melanoma
TK-10 renal = system: TK-10 renal
EKVX NSCLC = system: EKVX NSCLC
SK-OV-3 ovarian = system: SK-OV-3 ovarian
NCI-H460 lung = system: NCI-H460 lung
A549 NSCLC = system: A549 NSCLC
HCT-15 colon = system: HCT-15 colon
SF-268 CNS = system: SF-268 CNS
SNB-75 CNS = system: SNB-75 CNS
RXF 393 renal = system: RXF 393 renal
SR leukemia = system: SR leukemia
HS 578T breast = system: HS 578T breast
CAKI-1 renal = system: CAKI-1 renal
PC-3 prostate = system: PC-3 prostate
ACHN renal = system: ACHN renal
HOP-62 NSCLC = system: HOP-62 NSCLC
OVCAR-4 ovarian = system: OVCAR-4 ovarian
NCI-H23 lung = system: NCI-H23 lung
NCI-H226 lung = system: NCI-H226 lung
MALME-3M melanoma = system: MALME-3M melanoma
SNB-19 CNS = system: SNB-19 CNS
NCI-H522 lung = system: NCI-H522 lung
A498 renal = system: A498 renal
SK-MEL-2 melanoma = system: SK-MEL-2 melanoma
COLO 205 colon = system: COLO 205 colon
OVCAR-5 ovarian = system: OVCAR-5 ovarian
UACC-257 melanoma = system: UACC-257 melanoma
BT-549 breast = system: BT-549 breast
KM12 colon = system: KM12 colon
HOP-92 NSCLC = system: HOP-92 NSCLC
SF-295 CNS = system: SF-295 CNS

CC(=O)OCCOCN1C(=O)NC(=O)/C(=C/c2cccc(OCc3ccccc3)c2)C1=O
GI50 (SK-MEL-5 melanoma): 33.5 µg/mL (≈ 76.3 µM) | GI50 (MDA-MB-435): 63.6 µg/mL (≈ 145 µM) | GI50 (HT29 colon): 48 µg/mL (≈ 110 µM) | GI50 (HCT-116 colon): 47.8 µg/mL (≈ 109 µM) | GI50 (OVCAR-8 ovarian): 37.9 µg/mL (≈ 86.6 µM) | GI50 (SN12C renal): 66 µg/mL (≈ 151 µM) | GI50 (SW-620 colon): 68.1 µg/mL (≈ 155 µM) | GI50 (M14 melanoma): 55.4 µg/mL (≈ 126 µM) | GI50 (UO-31 renal): 65.9 µg/mL (≈ 150 µM) | GI50 (LOX IMVI melanoma): 35.7 µg/mL (≈ 81.4 µM) | GI50 (IGROV1 ovarian): 33.6 µg/mL (≈ 76.7 µM) | GI50 (MDA-N): 29.4 µg/mL (≈ 67.1 µM) | GI50 (UACC-62 melanoma): 48.5 µg/mL (≈ 111 µM) | GI50 (NCI/ADR-RES ovarian): 19.9 µg/mL (≈ 45.4 µM) | TGI (NCI/ADR-RES ovarian): 45.4 µg/mL | GI50 (DU-145 prostate): 66 µg/mL (≈ 151 µM) | GI50 (SF-539 CNS): 23.4 µg/mL (≈ 53.3 µM) | TGI (SF-539 CNS): 79.1 µg/mL | GI50 (CCRF-CEM leukemia): 25 µg/mL (≈ 56.9 µM) | TGI (CCRF-CEM leukemia): 58.1 µg/mL | GI50 (T-47D breast): 73.9 µg/mL (≈ 169 µM) | GI50 (MOLT-4 leukemia): 35.3 µg/mL (≈ 80.5 µM) | GI50 (RPMI-8226 leukemia): 29.1 µg/mL (≈ 66.4 µM) | TGI (RPMI-8226 leukemia): 73.2 µg/mL | GI50 (MCF7 breast): 42.5 µg/mL (≈ 97 µM) | GI50 (MDA-MB-231 breast): 94.7 µg/mL (≈ 216 µM) | GI50 (786-0 renal): 62.1 µg/mL (≈ 142 µM) | GI50 (K-562 leukemia): 34.9 µg/mL (≈ 79.7 µM) | GI50 (U251 CNS): 55.7 µg/mL (≈ 127 µM) | GI50 (OVCAR-3 ovarian): 50.3 µg/mL (≈ 115 µM) | GI50 (HL-60(TB) leukemia): 15 µg/mL (≈ 34.2 µM) | TGI (HL-60(TB) leukemia): 48.6 µg/mL

Cc1nc2[nH]ncn2c(=O)c1CCO
TGI (SK-MEL-5 melanoma): > 10 µM | TGI (HCC-2998 colon): > 10 µM | TGI (SK-MEL-28 melanoma): 7.74 µM | TGI (TK-10 renal): > 10 µM | TGI (EKVX NSCLC): > 10 µM | TGI (MDA-MB-435): > 10 µM | TGI (HT29 colon): > 10 µM | TGI (HCT-116 colon): > 10 µM | TGI (OVCAR-8 ovarian): > 10 µM | TGI (SN12C renal): > 10 µM | TGI (SK-OV-3 ovarian): > 10 µM | TGI (NCI-H460 lung): > 10 µM | TGI (A549 NSCLC): > 10 µM | TGI (HCT-15 colon): > 10 µM | TGI (SW-620 colon): > 10 µM | TGI (M14 melanoma): > 10 µM | TGI (UO-31 renal): > 10 µM | TGI (LOX IMVI melanoma): > 10 µM | TGI (SF-268 CNS): > 10 µM | TGI (SNB-75 CNS): > 10 µM | TGI (RXF 393 renal): > 10 µM | TGI (SR leukemia): > 10 µM | TGI (HS 578T breast): > 10 µM | TGI (IGROV1 ovarian): > 10 µM | TGI (CAKI-1 renal): > 10 µM | TGI (MDA-N): > 10 µM | TGI (UACC-62 melanoma): > 10 µM | TGI (NCI/ADR-RES ovarian): > 10 µM | TGI (PC-3 prostate): > 10 µM | TGI (DU-145 prostate): > 10 µM | TGI (SF-539 CNS): > 10 µM | TGI (ACHN renal): > 10 µM | TGI (CCRF-CEM leukemia): > 10 µM | TGI (HOP-62 NSCLC): > 10 µM | TGI (OVCAR-4 ovarian): > 10 µM | TGI (NCI-H23 lung): > 10 µM | TGI (NCI-H226 lung): > 10 µM | TGI (T-47D breast): > 10 µM | TGI (MOLT-4 leukemia): > 10 µM | TGI (MALME-3M melanoma): > 10 µM | TGI (RPMI-8226 leukemia): > 10 µM | TGI (MCF7 breast): > 10 µM | TGI (MDA-MB-231 breast): > 10 µM | TGI (SNB-19 CNS): > 10 µM | TGI (NCI-H522 lung): > 10 µM | TGI (A498 renal): > 10 µM | TGI (K-562 leukemia): > 10 µM | TGI (SK-MEL-2 melanoma): > 10 µM | TGI (COLO 205 colon): > 10 µM | TGI (OVCAR-5 ovarian): > 10 µM | TGI (U251 CNS): > 10 µM | TGI (HL-60(TB) leukemia): > 10 µM

O=S(=O)(O)c1ccc2c(N=Nc3ccc(Cl)cc3)c(O)ccc2c1
TGI (SK-MEL-5 melanoma): > 100 µM | TGI (SK-MEL-28 melanoma): > 100 µM | TGI (TK-10 renal): > 100 µM | TGI (EKVX NSCLC): > 100 µM | TGI (MDA-MB-435): > 100 µM | TGI (HT29 colon): > 100 µM | TGI (HCT-116 colon): > 100 µM | TGI (OVCAR-8 ovarian): > 100 µM | TGI (SN12C renal): > 100 µM | TGI (SK-OV-3 ovarian): > 100 µM | TGI (UACC-257 melanoma): > 100 µM | TGI (A549 NSCLC): > 100 µM | TGI (HCT-15 colon): > 100 µM | TGI (SW-620 colon): > 100 µM | TGI (M14 melanoma): > 100 µM | TGI (UO-31 renal): > 100 µM | TGI (LOX IMVI melanoma): > 100 µM | TGI (SF-268 CNS): > 100 µM | TGI (SNB-75 CNS): > 100 µM | TGI (BT-549 breast): > 100 µM | TGI (RXF 393 renal): > 100 µM | TGI (HS 578T breast): > 100 µM | TGI (IGROV1 ovarian): > 100 µM | TGI (CAKI-1 renal): > 100 µM | TGI (KM12 colon): > 100 µM | TGI (MDA-N): > 100 µM | TGI (UACC-62 melanoma): > 100 µM | TGI (NCI/ADR-RES ovarian): > 100 µM | TGI (PC-3 prostate): > 100 µM | TGI (DU-145 prostate): > 100 µM | TGI (ACHN renal): > 100 µM | TGI (CCRF-CEM leukemia): > 100 µM | TGI (HOP-62 NSCLC): > 100 µM | TGI (OVCAR-4 ovarian): > 100 µM | TGI (NCI-H23 lung): > 100 µM | TGI (T-47D breast): > 100 µM | TGI (MOLT-4 leukemia): > 100 µM | TGI (MALME-3M melanoma): > 100 µM | TGI (RPMI-8226 leukemia): > 100 µM | TGI (HOP-92 NSCLC): > 100 µM | TGI (MDA-MB-231 breast): > 100 µM | TGI (SNB-19 CNS): > 100 µM | TGI (NCI-H522 lung): > 100 µM | TGI (A498 renal): > 100 µM | TGI (786-0 renal): > 100 µM | TGI (K-562 leukemia): > 100 µM | TGI (SK-MEL-2 melanoma): > 100 µM | TGI (COLO 205 colon): > 100 µM | TGI (OVCAR-5 ovarian): > 100 µM | TGI (U251 CNS): > 100 µM | TGI (SF-295 CNS): > 100 µM | TGI (OVCAR-3 ovarian): > 100 µM
